Like-named read-outs stand apart in the source and are kept apart here.
Molecular target: T1, HIV-1 protease (Human immunodeficiency virus type 1 group M subtype B, UniProt P04585)
T1 construct: The protease (or proteinase), consisting of only 99 amino acids, is among the smallest enzymes known
Assay: In vitro HIV protease inhibitory assay (HIV Protease FITC Assay)
Format: biochemical
Settings: for inhibition at 0.123 µM / inhibition at 0.37 µM / inhibition at 1.1 µM / inhibition at 3.3 µM / inhibition at 10 µM / inhibition at 30 µM: read-out: HIV-1 Protease % Inhib
Summary of the method: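 Percent inhibition was read as fluorescence after avidin-bead capture and filtration separated FITC cleavage product from biotinylated substrate. Enzyme and substrate reacted 1 h, RT, dark, at pH 5.5 (0.1 M sodium acetate, 1.0 M NaCl, 0.05% NP-40).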

| SMILES | inhibition at 0.123 µM (HIV-1 Dose 0.123 uM) | inhibition at 0.37 µM (HIV-1 Dose 0.370 uM) | inhibition at 1.1 µM (HIV-1 Dose 1.100 uM) | inhibition at 3.3 µM (HIV-1 Dose 3.300 uM) | inhibition at 10 µM (HIV-1 Dose 10.000 uM) | inhibition at 30 µM (HIV-1 Dose 30.000 uM) | Ki (read-out: HIV-1 FITC Ki) | other results |
| --- | --- | --- | --- | --- | --- | --- | --- | --- |
| CCC(Cc1ccccc1)c1cc(O)c(C(c2cccc(NC(=O)[C@H](Cc3cn(S(=O)(=O)c4ccc(C)cc4)cn3)NC(=O)OC(C)(C)C)c2)C2CC2)c(=O)o1 (stereo partly drawn) [Example 222, 3-(α-Cyclopropyl-meta-(N-α-tert-butyloxycarbonyl-N-im-p-toluenesulfonyl-L-histidylamino)benzyl)-6-(α-ethylphenethyl)-4-hydroxy-2H-pyran-2-one] | 19% | 51.7% | 75.8% | 91% | 98.3% | 95.8% | 18.5 nM | – |
| CCC(Cc1ccccc1)c1cc(O)c(C(c2cccc(NS(=O)(=O)c3ccc(Cl)cc3)c2)C2CC2)c(=O)o1 (stereo not drawn) [Example 224, 3-(α-Cyclopropyl-meta-(4-chlorophenylsulfonylamino)benzyl)-6-(α-ethylphenethyl)-4-hydroxy-2H-pyran-2-one] | – | – | – | – | – | – | – | Ki: 14.7 nM; inhibition at 0.123 µM: 46.9%; inhibition at 0.37 µM: 76.9%; inhibition at 1.1 µM: 99.6%; inhibition at 3.3 µM: 97.1%; inhibition at 10 µM: 110%; inhibition at 30 µM: 105% |
| CCC(Cc1ccccc1)c1cc(O)c(C(c2cccc(NC(=O)CC[C@H](NC(=O)OCc3ccccc3)C(=O)OCc3ccccc3)c2)C2CC2)c(=O)o1 (stereo partly drawn) [Example 225, 3-(α-Cyclopropyl-meta-(N-benzyloxycarbonyl-O-α-benzyl-L-glutamylamino)benzyl)-6-(α-ethylphenethyl)-4-hydroxy-2H-pyran-2-one] | < 10% | < 10% | < 10% | 21% | 30.6% | 35.5% | – | – |
| CCC(Cc1ccccc1)c1cc(O)c(C(c2cccc(NC(=O)[C@H](Cc3c[nH]cn3)NC(=O)OC(C)(C)C)c2)C2CC2)c(=O)o1 (stereo partly drawn) [Example 226, 3-(α-Cyclopropyl-meta-(N-α-tert-butyloxycarbonyl-L-histidylamino)benzyl)-6-(α-ethylphenethyl)-4-hydroxy-2H-pyran-2-one] | – | – | – | – | – | – | 4 nM | inhibition at 0.123 µM: 73.4%; inhibition at 0.37 µM: 93.9%; inhibition at 1.1 µM: 106%; inhibition at 3.3 µM: 104%; inhibition at 10 µM: 101%; inhibition at 30 µM: 98.3% |
| CCC(Cc1ccccc1)c1cc(O)c(C(c2cccc(NC(=O)c3ccc(C#N)cc3)c2)C2CC2)c(=O)o1 (stereo not drawn) [Example 227] | < 10% | 19.6% | 49.2% | 80.2% | 89.8% | 85.4% | – | – |
| CCC(Cc1ccccc1)c1cc(O)c(C(c2cccc(NS(=O)(=O)c3cccc4cccnc34)c2)C2CC2)c(=O)o1 (stereo not drawn) [Example 229, 3-(α-Cyclopropyl-meta-(8-quinolinesulfonylamino)benzyl)-6-(α-ethylphenethyl)-4-hydroxy-2H-pyran-2-one] | 52.2% | 95.9% | 106% | 106% | 113% | 102% | 3.5 nM | – |
| CCC(Cc1ccccc1)c1cc(O)c(C(c2cccc(NC(=O)CCn3ccc4ccccc43)c2)C2CC2)c(=O)o1 (stereo not drawn) [Example 230, 3-(α-Cyclopropyl-meta-(3-(1-indolyl)propanoylamino)benzyl)-6-(α-ethylphenethyl)-4-hydroxy-2H-pyran-2-one] | < 10% | 15.3% | 48.6% | 71.3% | 91.1% | 85.3% | – | – |
| CCC(Cc1ccccc1)c1cc(O)c(C(c2cccc(NC(=O)Cc3ccccn3)c2)C2CC2)c(=O)o1 (stereo not drawn) [Example 231, 3-(α-Cyclopropyl-meta-(2-pyridylacetylamino)benzyl)-6-(α-ethylphenethyl)-4-hydroxy-2H-pyran-2-one] | 16.5% | 57.4% | 77.7% | 98.9% | 113% | 109% | 52.4 nM | – |
| COCOCc1ccc(C(C2=C(O)CC(CCc3ccccc3)(CC(C)C)OC2=O)C2CC2)s1 (stereo not drawn) [Example 232, 2H-Pyran-2-one, 3-(α-cyclopropyl-[5-(methoxymethoxy-methyl)-thiophen-2-yl]-methyl)-5,6-dihydro-4-hydroxy-6-(2-methylpropyl)-6-(2-phenylethyl)-] | – | – | – | – | – | – | 76 nM | HIV-1 Protease % Inhib (HIV-1 Dose 0.123 uM): 10.57%; HIV-1 Protease % Inhib (HIV-1 Dose 0.370 uM): 36.97%; HIV-1 Protease % Inhib (HIV-1 Dose 1.100 uM): 73.74%; HIV-1 Protease % Inhib (HIV-1 Dose 3.300 uM): 93.56%; HIV-1 Protease % Inhib (HIV-1 Dose 10.000 uM): 103.56%; HIV-1 Protease % Inhib (HIV-1 Dose 30.000 uM): 98.87% |
| C=CC(C1=C(O)CC(CCc2ccccc2)(CC(C)C)OC1=O)c1ccccc1 (stereo not drawn) [Example 233, 2H-Pyran-2-one, 5,6-dihydro-4-hydroxy-6-(2-methylpropyl)-6-(2-phenylethyl)-3-(1-phenyl-2-propenyl)-] | < 10% | 28.9% | 64.9% | 83.1% | 93.7% | 59.4% | 24.8 nM | – |
| CCC(C1=C(O)CC(CCc2ccccc2)(CC(C)C)OC1=O)c1ccccc1 (stereo not drawn) [Example 234, 2H-Pyran-2-one, 5,6-dihydro-4-hydroxy-6-(2-methylpropyl)-6-(2-phenylethyl)-3-(1-phenylpropyl)-] | < 10% | 33.4% | 61.6% | 81.1% | 83% | 71.1% | 39.4 nM | – |
| O=C1OC(CCc2ccccc2)(CCc2ccccc2)CC(O)=C1C(c1ccccc1)c1ccccc1 [Example 235, 2H-Pyran-2-one, 5,6-dihydro-3-diphenylmethyl4-hydroxy-6,6-di-(2-phenylethyl)-] | < 10% | 13.7% | 33.2% | 61.6% | 73.3% | 80.1% | – | – |
| O=C1OC(CCc2ccccc2)(CCc2ccccc2)CC(O)=C1C(C=Cc1ccccc1)c1ccccc1 (stereo not drawn) [Example 236, 2H-Pyran-2-one, 5,6-dihydro-4-hydroxy-6,6-di-(2-phenylethyl)-3-(1,3-diphenyl-2-propenyl)-] | < 10% | < 10% | 26% | 54.1% | 75.8% | 78.7% | – | – |
| O=C1OC(CCc2ccccc2)(CCc2ccccc2)CC(O)=C1C(CCc1ccccc1)c1ccccc1 (stereo not drawn) [Example 237, 2H-Pyran-2-one, 5,6-dihydro-4-hydroxy-6,6-di-(2-phenylethyl)-3-(1,3-diphenylpropyl)-] | < 10% | 10.2% | 32% | 60.2% | 80.9% | 78.2% | – | – |
| CCCC1(CCCc2ccccc2)CC(O)=C(C(C=Cc2ccccc2)c2ccccc2)C(=O)O1 (stereo not drawn) [Example 238, 2H-Pyran-2-one, 5,6-dihydro-4-hydroxy-3-(1,3-diphenyl-2-propenyl)-6-(3-phenylpropyl)-6-propyl-] | < 10% | 20.5% | 52.8% | 75.6% | 81% | 87.1% | 163 nM | – |
| CCCC1(CCCc2ccccc2)CC(O)=C(C(CCc2ccccc2)c2ccccc2)C(=O)O1 (stereo not drawn) [Example 239, 2H-Pyran-2-one, 5,6-dihydro-4-hydroxy-3-(1,3-diphenylpropyl)-6-(3-phenylpropyl)-6-propyl-] | < 10% | 35.8% | 63.9% | 79.8% | 91% | 85.7% | 99 nM | – |
| CCCC1(CCc2ccccc2)CC(O)=C(C(c2ccc(COCOC)s2)C2CC2)C(=O)O1 (stereo not drawn) [Example 240, 2H-Pyran-2-one, 3-(α-cyclopropyl-[5-(methoxymethoxy-methyl)-thiophen-2-yl]-methyl)-5,6-dihydro-4-hydroxy-6-(2-phenylethyl)-6-propyl-] | < 10% | 40.6% | 68.7% | 95% | 113% | 104% | 29.2 nM | – |
| CCCC1(CCCc2ccccc2)CC(O)=C(C(c2ccc(COCOC)s2)C2CC2)C(=O)O1 (stereo not drawn) [Example 241, 2H-Pyran-2-one, 3-(α-cyclopropyl-[5-(methoxymethoxy-methyl)-thiophen-2-yl]-methyl)-5,6-dihydro-4-hydroxy-6-(3-phenylpropyl)-6-propyl-] | < 10% | < 10% | 32.8% | 62.9% | 87.1% | 90.3% | – | – |
| CCCC1(CCCc2ccccc2)CC(O)=C(C(c2ccccc2)c2ccccc2)C(=O)O1 (stereo not drawn) [Example 242, 2H-Pyran-2-one, 5,6-dihydro-3-diphenylmethyl-4-hydroxy-6-(3-phenylpropyl)-6-propyl-] | < 10% | 19.9% | 53.5% | 80.5% | 90.2% | 93.2% | 32.3 nM | – |

— patent EP1203770A1 (priority 1992, dated 1994)
